Test results reported in patent publication US20060128716A1, “Use of 4-pyridylmethyl-phthalazine derivatives for the manufacture of a medicament for the treatment of myelodysplastic syndromes” (priority 2002, published 2006).

Experiments:
advanced MDS = test: Clinical example: oral PTK787 in patients with untreated advanced MDS; format: in vivo, human
Flt-1 = Flt-1 (Homo sapiens, UniProt P17948); conditions: statement in words, no test described; cited from earlier work
Flt-4 = Flt-4 (Homo sapiens, UniProt P35916); conditions: statement in words, no test described; cited from earlier work
Flt-4, sequence (P35916 25-1363, species assumed): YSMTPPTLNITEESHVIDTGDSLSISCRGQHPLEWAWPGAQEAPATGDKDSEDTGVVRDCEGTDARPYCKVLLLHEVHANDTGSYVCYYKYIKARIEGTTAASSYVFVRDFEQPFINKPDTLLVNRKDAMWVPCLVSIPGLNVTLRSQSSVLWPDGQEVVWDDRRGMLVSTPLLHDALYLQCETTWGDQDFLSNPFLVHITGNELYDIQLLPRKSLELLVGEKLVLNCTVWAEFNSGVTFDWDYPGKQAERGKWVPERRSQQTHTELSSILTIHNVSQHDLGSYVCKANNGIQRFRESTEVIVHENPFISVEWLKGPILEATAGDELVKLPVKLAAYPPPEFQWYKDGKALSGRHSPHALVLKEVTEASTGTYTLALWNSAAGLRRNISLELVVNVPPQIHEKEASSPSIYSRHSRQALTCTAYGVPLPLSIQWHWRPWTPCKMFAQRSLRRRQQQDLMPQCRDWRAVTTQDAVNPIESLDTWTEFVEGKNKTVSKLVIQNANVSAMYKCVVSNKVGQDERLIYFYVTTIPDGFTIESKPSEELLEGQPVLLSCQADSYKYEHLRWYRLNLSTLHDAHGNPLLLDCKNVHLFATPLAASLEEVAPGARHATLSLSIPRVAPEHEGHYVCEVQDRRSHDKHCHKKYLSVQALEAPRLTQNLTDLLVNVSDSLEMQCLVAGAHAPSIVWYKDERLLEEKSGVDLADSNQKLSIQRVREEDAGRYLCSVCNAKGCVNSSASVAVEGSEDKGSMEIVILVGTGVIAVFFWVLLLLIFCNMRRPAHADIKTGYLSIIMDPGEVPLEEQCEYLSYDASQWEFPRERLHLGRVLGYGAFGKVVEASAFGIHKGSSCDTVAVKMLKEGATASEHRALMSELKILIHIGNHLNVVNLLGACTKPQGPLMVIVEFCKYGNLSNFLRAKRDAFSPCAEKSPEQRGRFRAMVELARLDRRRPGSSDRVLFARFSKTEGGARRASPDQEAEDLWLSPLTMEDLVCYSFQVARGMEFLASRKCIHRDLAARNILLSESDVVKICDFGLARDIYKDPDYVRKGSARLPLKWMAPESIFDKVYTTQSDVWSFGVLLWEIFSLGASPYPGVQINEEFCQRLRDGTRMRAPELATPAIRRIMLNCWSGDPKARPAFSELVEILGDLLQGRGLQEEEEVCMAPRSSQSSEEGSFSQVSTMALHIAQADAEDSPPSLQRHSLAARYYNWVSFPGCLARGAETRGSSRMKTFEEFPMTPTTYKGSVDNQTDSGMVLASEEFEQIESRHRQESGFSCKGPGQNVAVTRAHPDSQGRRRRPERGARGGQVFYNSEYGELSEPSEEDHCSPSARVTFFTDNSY

c-Kit = c-Kit (Homo sapiens, UniProt P10721); conditions: statement in words, no test described; cited from earlier work
c-Kit, sequence (P10721 26-976): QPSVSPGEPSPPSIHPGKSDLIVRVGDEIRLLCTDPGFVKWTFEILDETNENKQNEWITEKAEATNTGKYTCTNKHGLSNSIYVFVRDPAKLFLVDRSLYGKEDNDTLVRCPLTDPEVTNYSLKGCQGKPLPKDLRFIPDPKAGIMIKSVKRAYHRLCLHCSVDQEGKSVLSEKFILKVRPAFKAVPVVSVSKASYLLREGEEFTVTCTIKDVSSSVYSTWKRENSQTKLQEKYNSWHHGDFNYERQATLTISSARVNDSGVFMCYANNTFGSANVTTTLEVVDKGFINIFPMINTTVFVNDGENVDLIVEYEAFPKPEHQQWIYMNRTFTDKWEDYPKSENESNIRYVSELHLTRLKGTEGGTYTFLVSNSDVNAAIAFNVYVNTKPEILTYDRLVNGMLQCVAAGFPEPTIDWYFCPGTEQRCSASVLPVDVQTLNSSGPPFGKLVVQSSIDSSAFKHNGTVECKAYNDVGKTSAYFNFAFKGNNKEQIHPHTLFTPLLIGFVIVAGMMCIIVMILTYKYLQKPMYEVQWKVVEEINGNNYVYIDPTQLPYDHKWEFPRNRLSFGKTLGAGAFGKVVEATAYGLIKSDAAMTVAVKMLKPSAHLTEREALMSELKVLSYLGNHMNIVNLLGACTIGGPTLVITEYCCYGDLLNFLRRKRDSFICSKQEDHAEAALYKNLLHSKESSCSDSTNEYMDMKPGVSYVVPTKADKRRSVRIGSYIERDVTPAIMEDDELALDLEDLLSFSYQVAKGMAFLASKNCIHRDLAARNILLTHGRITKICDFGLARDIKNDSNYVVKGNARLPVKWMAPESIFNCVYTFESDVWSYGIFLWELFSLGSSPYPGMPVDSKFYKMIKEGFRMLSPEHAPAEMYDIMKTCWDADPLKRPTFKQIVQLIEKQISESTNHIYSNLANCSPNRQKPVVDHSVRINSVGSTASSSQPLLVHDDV

Flt-1, sequence (P17948 27-1338, species assumed): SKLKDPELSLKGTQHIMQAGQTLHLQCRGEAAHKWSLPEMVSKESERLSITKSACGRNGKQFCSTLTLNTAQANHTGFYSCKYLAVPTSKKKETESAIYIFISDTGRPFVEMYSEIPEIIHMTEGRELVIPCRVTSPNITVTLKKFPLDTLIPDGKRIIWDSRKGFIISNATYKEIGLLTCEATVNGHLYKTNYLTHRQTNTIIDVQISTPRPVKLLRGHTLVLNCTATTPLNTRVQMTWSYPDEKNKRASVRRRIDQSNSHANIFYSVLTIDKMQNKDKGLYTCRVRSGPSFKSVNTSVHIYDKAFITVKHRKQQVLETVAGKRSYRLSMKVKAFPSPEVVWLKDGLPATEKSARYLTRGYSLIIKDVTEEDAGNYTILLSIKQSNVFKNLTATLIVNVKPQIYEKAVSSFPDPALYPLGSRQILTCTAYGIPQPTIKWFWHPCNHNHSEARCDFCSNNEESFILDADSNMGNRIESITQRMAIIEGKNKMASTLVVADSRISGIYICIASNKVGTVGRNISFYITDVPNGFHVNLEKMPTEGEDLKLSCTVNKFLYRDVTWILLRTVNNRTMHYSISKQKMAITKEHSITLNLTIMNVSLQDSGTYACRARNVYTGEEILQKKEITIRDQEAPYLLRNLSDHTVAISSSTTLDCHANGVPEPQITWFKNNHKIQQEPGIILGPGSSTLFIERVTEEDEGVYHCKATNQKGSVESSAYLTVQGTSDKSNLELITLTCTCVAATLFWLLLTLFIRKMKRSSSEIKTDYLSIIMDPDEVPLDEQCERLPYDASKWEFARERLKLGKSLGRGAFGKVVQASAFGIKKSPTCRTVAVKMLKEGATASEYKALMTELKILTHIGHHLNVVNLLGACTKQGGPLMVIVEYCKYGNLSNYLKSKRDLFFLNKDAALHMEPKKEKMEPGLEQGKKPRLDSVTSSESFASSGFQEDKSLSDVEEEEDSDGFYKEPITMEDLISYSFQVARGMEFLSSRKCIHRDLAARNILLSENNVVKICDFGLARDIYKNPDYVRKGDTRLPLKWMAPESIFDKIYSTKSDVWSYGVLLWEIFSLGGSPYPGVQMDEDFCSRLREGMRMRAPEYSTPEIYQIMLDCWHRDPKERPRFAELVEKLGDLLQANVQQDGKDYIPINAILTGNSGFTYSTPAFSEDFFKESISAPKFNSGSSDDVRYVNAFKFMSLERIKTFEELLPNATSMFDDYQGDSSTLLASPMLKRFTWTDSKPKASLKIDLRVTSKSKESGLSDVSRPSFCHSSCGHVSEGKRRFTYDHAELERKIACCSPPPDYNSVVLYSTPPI

## Clc1ccc(Nc2nnc(Cc3ccncc3)c3ccccc23)cc1 [PTK787]
Advanced MDS; in at least some patients with MDS
  disease progression in patients with MDS: slows disease progression
Advanced MDS; of twelve patients, 500 or 750 mg orally twice daily
  patients with MDS showing stable disease with excellent performance status: Two
Advanced MDS; one patient with baseline 18% bone marrow blasts, remained for 8 months, 500 or 750 mg orally twice daily
  bone marrow blasts: under 30%
Advanced MDS; second patient with baseline 11.5% blasts, remained for 4 months, 500 or 750 mg orally twice daily
  bone marrow blasts: ≤ 16%
Flt-1
  inhibition of Flt-1: can also inhibit
Flt-4
  inhibition of Flt-4: can also inhibit
c-Kit
  activity against c-Kit: has activity against other tyrosine kinase receptors
